Test results from patent US7291456B2, “Method for determining differences in molecular interactions and for screening a combinatorial library” (The Regents of the University of California, priority 2002, dated 2007).

Tested on: human plasma
Test: One-bead-one-compound cXXXXXc peptide library screening, biotinylated serum (first mixture) then plasma (target mixture), BCIP staining and (B-A)/A image analysis
Format: binding
Conditions: 4 μg biotinylated serum, then 4 μg biotinylated plasma, 1 hour each at 23° C., sequence by automated peptide sequencing
Source text: General Method. The two mixtures of molecules to be compared were human plasma, referred to as “the target mixture,” and human serum, referred to as “the first mixture.” Both the plasma and serum were biotinylated with EZ-Link™ Sulfo-NHS-LC-Biotin from Pierce. Bead libraries were generated on TenteGel from Rapp Polymere. Amino acids used in bead library synthesis were from Synpep. Bead library screenings were done in disposable polypropylene columns from Perkin Elmer Life Sciences. All buffer reagents were from Sigma unless otherwise noted. PBS, TBS and BCIP buffers were as described in Lam, Kit S. and Michal Lebl, “Synthesis of a one-bead one-compound combinatorial peptide library,” Methods in Molecular Biology, vol. 87, Combinatorial Peptide Library Protocols. Edited by Shmuel Cabilly (Humana Press: 1997), 1-6. Bead staining utilized BCIP from Bio Synth AG which was hydrolyzed with streptavidin-alkaline phosphatase conjugate from Zymed. Bead immobilization was done in SeaPlaque agarose from Bio Wittaker Molecular Applications in Omni tray lids from Nunc/Nalgene. Scanned images were generated on a flatbed transparency scanner from Umax. Computer imaging was accomplished with Adobe Photoshop and compiler software was from Metrowerks. Amino acid sequencing was done on an Applied Biosystems Procise 494 Protein Sequencer.
Library Synthesis. “One-bead-one-compound” cXXXXXc peptide libraries were synthesized essentially as described (Lam and Lebl, Methods in Molecular Biology, vol. 87) using the “split synthesis approach,” where “X” denotes any L-amino acid except for cysteine, arginine, and lysine, and “c” is D-cysteine. TenteGel was used as a solid support and standard Fmoc chemistry was used for the solid phase peptide synthesis reactions. (Stewart and Young 1984. Solid-Phase Peptide Synthesis. Pierce Chemical Co. Atherton, E. and R. C. Sheppard. 1989. Solid Phase Peptide Synthesis: A Practical Approach. Practical Approach Series.)
Extract Preparation and Biotinlation. Human plasma and serum were prepared by the collection of human blood into stoppered vacuum tubes in the presence of Na-heparin as an anti-coagulant for plasma and in the absence of Na-heparin for serum. Blood was allowed to clot in the tubes for 25 minutes after which the top layer of […] was collected. Na-heparin was added to the serum to equalize the amount of Na-heparin in plasma and serum after which both samples were centrifuged at 1000 rpm for 20 minutes in a Sorvall SS34 centrifuge rotor. After centrifugation, samples were aliquoted, dialyzed against PBS for four hours at 4° C., quantitated and stored frozen at −80° C. The concentrations of the plasma and serum protein extracts after dialysis were 66.5 and 57.8 mg/ml, respectively.
Plasma and serum were tagged using biotinylation where biotin was the label and streptavidin alkaline phosphatase conjugate was the label binder. Biotinylation was performed according to the manufacturer's instructions. About 0.2 mg of protein was incubated in PBS with a 20-fold molar excess of sulfo-NHS-LC-biotin for 30 minutes at 23° C. The reaction was quenched by the addition of Tris-HCl pH 7.9 to 100 mM. For calculations of molarity, the average molecular weight of the proteins in the plasma and serum solutions was assumed to be 50 kD.
Library Screening. Four experiments were conducted. On average, 250,000 “one-bead-one-compound” beads were screened in each experiment. All bead reactions were performed in 1.5 ml polypropylene disposable micro-columns with inside dimensions of 37 mm×6 mm. Unless otherwise noted, all bead reactions were incubated on a Lab quake bench top rotator (Barnstead/Thermolyne) for 1 hour at 23° C. Bead libraries were stored in PBS with 0.05% sodium-azide. All incubation buffers and components were thoroughly mixed before addition to the column containing the bead library. […]

Substance	ligands identified on true positive beads (beads that bound molecules essentially unique to the plasma)
cGIHYLc	identified
cNLTHIc	identified
cFHNNHc	identified
cHYHVSc	identified
cAHVWHc	identified
cHGHTIc	identified
cHTLHQc	identified
cPFHHSc	identified
cHYQTGc	identified
cMHGHFc	identified
cHVHPWc	identified
cYGHFSc	identified
